Reference: patent publication US20260028390A1, “ALPHA1-ANTITRYPSIN FOR USE IN THE TREATMENT OF DISEASES OR DISORDERS OF THE NERVOUS SYSTEM SUCH AS CHRONIC INFLAMMATORY DEMYELINATING POLYNEUROPATHY” (Ageronix SA, priority 2022, published 2026)
Several values for one entry are separate records, joined by “and”; a condition that tells them apart may be missing. Identical values can stand only once.

Legend:
[1] = system: CMT1A mice B6.Cg-Tg(PMP22)C3Fbas/J; assay: Rotarod latency to fall, CMT mice treated with AAT 180 mg/kg/day sc; assay type: in vivo, mouse
[2] = system: CIDP mice; assay: Sciatic nerve electrophysiology (CMAP, NCV), CIDP mouse model; assay type: in vivo; details: for Compound muscle action potential (Mean ± SD) / Nerve conduction velocity (Mean ± SD): CIDP mice; for Electrophysiology, Amplitude / Electrophysiology, Conduction velocity / Electrophysiology, T1 distal / Electrophysiology, T2 proximal: per mouse, listed as hAAT
Protocol: (§1) C57BL/6 mice were received at 8 weeks of age and housed under controlled conditions for the duration of the study. Three groups of 4 animals each were assigned to the following subcutaneous treatments twice daily at 7:00 AM and 7:00 PM for 2 weeks, from 20 to 35 days after the start of disease induction: • Wild type (WT) mice receiving the vehicle, 0.9% NaCl (positive control) • CIDP mice receiving the vehicle, 0.9% NaCl (negative control) • CIDP mice receiving human AAT (AAT), 50 mg/kg per injection
(§2) Disease induction consisted in subcutaneous injection of mouse sciatic nerve homogenate in phosphate buffer saline (PBS)+Freund's adjuvant mixture at 10 mL/kg. For each treatment, 3 different body sites injections were performed. Control mice also received three subcutaneous injections of PBS+Freund's adjuvant at the same 3 different body sites.
(§3) On the first (Day 20) and last (Day 35) day of treatment, the neuromuscular and performance of animals was tested with a rotarod test, grip test and a sensory test using the Von Frey filament test, as well as sciatic nerve electrophysiology test. After the last treatment at Day 35, these tests were repeated, animals were sacrificed and the left sciatic nerve was sampled for histological evaluation of the number and size of […].

[3] = system: CIDP mice; assay: Von Frey test (paw withdrawal threshold), CIDP mouse model; assay type: in vivo; details: for Von Frey, paw withdrawal threshold (Mean ± SD): CIDP mice; for von Frey test, Paw withdrawal threshold, group MEAN: group mean of 4 animals; for von Frey test, Paw withdrawal threshold, Mean/animal: per animal; for von Frey test, Paw withdrawal threshold, Mean/animal / von Frey test, Paw withdrawal threshold, set 1 / von Frey test, Paw withdrawal threshold, set 2 / von Frey test, Paw withdrawal threshold, set 3: listed as hAAT; for von Frey test, Paw withdrawal threshold, set 1 / von Frey test, Paw withdrawal threshold, set 2 / von Frey test, Paw withdrawal threshold, set 3: raw data per animal
Protocol: as §1, §2, §3

[4] = system: CMT1A mice B6.Cg-Tg(PMP22)C3Fbas/J; assay: Sciatic nerve electrophysiology (CMAP, NCV), CMT mice treated with AAT 180 mg/kg/day sc; assay type: in vivo, mouse
Protocol: CMT MOUSE MODEL: Non-humanized CMT1A mice B6.Cg-Tg(PMP22)C3Fbas/J (three copies of the PMP22 gene), three groups of 8 animals each.
DOSAGE: 180 mg/kg/day non-clinical grade AAT (Sigma)
ADMINISTRATION: Subcutaneous (SC) (bi-daily injection of 90 mg/kg)
Animals were received at 6 weeks of age and housed under controlled conditions for the duration of the study. The study comprised two groups of 8 transgenic mice (CMT mice) each and one group of 8 age matched wild type (WT) C57B16 mice, serving as positive control. Animals were assigned to the following subcutaneous treatments twice daily at 7:00 AM and 7:00 PM for 2 weeks, starting from 8 weeks and up to 10 weeks of age: • Wild-type (WT, no disease) mice receiving vehicle, 0.9% NaCl (positive control) • CMT1A mice receiving vehicle, 0.9% NaCl (negative control) • CMT1A mice receiving AAT at 90 mg/kg per injection (daily dose 180 mg/kg)
The efficacy parameters included: • neuromuscular performance (rotarod latency to fall and grip strength test), • sciatic nerve electrophysiology (CMAP amplitude and NCV) • cytokine (IL-6 and TNFα), as well as NfL analysis • sciatic nerve histology (number of axons and axonal diameter),
On the first day of treatment (Day 1), the neuromuscular and performance of animals was tested with a rotarod test and a grip strength test, as well as sciatic nerve electrophysiology test, which measured the compound muscle action potential (CMAP) and the nerve conduction velocity (NCV). After the last treatment on Day 15, these tests were repeated. Animals were then left untreated for 2 additional weeks to evaluate the duration of the treatment effect. Following the 2-week treatment-free period until 12 weeks of age (Day 30), the behavioural and electrophysiological tests were repeated.

[5] = CMT mice, AAT 90 mg/kg sc twice a day, 8 to 10 weeks of age, end of treatment
[6] = baseline (6 weeks old), CMT + hAAT, individual animal
[7] = CIDP + AAT 50 mg/kg sc twice daily, Day 35
[8] = Day 35, AAT 50 mg/kg sc twice daily
[9] = 8 weeks old (baseline, Day 1), CMT1A + AAT
[10] = 8 weeks old, CMT + hAAT 180 mg/kg/day SC, 8 mice
[11] = 8 weeks old, CMT + hAAT 180 mg/kg/day SC, individual mouse
[12] = 10 weeks old (Day 15, after 2 weeks AAT 90 mg/kg sc twice daily)
[13] = 12 weeks old (Day 30, after 2-week treatment-free period)

alpha1-antitrypsin (AAT) protein
rotarod latency to fall vs CMT mice not treated with AAT [1, 5]: significant increase
Rotarod latency, group Mean ([1]; baseline (6 weeks old), CMT + hAAT, 8 animals): 71.46 s
Rotarod latency, Mean/animal [1, 6]: 53.43 s and 52.98 s and 66.74 s and 56.96 s and 66.75 s and 65.56 s and 106.66 s and 102.61 s
Rotarod latency, set 1 [1, 6]: 53.47 s and 57.35 s and 69.94 s and 62.11 s and 65.03 s and 66.86 s and 110.28 s and 93.16 s
Rotarod latency, set 2 [1, 6]: 57.11 s and 51.61 s and 67.40 s and 54.79 s and 72.92 s and 68.48 s and 109.55 s and 105.36 s
Rotarod latency, set 3 [1, 6]: 49.72 s and 49.96 s and 62.87 s and 53.98 s and 62.30 s and 61.35 s and 100.14 s and 109.32 s
NCV compared to the vehicle treated group ([2]; CIDP + AAT 50 mg/kg sc twice daily): increase
CMAP amplitude compared to the CIDP+vehicle treated group [2, 7]: increase
Compound muscle action potential (Mean ± SD) ([2]; Day 20 (baseline)): 3.73 ± 0.42 mV
Nerve conduction velocity (Mean ± SD) ([2]; Day 20 (baseline)): 13.10 ± 4.49 m/s
Compound muscle action potential (Mean ± SD) [2, 8]: 4.56 ± 0.76 mV
Nerve conduction velocity (Mean ± SD) [2, 8]: 16.85 ± 2.43 m/s
Electrophysiology, Amplitude, group MEAN ([2]; Day 20): 3.731 mV
Electrophysiology, Conduction velocity, group MEAN ([2]; Day 20): 13.098 m/s
Electrophysiology, Amplitude, group MEAN ([2]; Day 35): 4.558 mV
Electrophysiology, Conduction velocity, group MEAN ([2]; Day 35): 16.851 m/s
Electrophysiology, Amplitude ([2]; Day 20): 3.734 mV and 3.562 mV and 3.318 mV and 4.308 mV
Electrophysiology, Conduction velocity ([2]; Day 20): 16.096 m/s and 11.057 m/s and 7.775 m/s and 17.463 m/s
Electrophysiology, T1 distal ([2]; Day 20): 2.673 ms and 3.177 ms and 2.864 ms and 3.114 ms
Electrophysiology, T2 proximal ([2]; Day 20): 3.605 ms and 4.533 ms and 4.793 ms and 3.973 ms
Electrophysiology, Amplitude ([2]; Day 35): 3.490 mV and 5.146 mV and 5.068 mV and 4.527 mV
Electrophysiology, Conduction velocity ([2]; Day 35): 16.007 m/s and 16.112 m/s and 14.881 m/s and 20.402 m/s
Electrophysiology, T1 distal ([2]; Day 35): 4.089 ms and 3.902 ms and 4.177 ms and 3.970 ms
Electrophysiology, T2 proximal ([2]; Day 35): 5.026 ms and 4.833 ms and 5.185 ms and 4.705 ms
threshold of paw withdrawal compared to the vehicle treated group [3, 7]: increased
Von Frey, paw withdrawal threshold (Mean ± SD) ([3]; Day 20 (baseline)): 3.16 ± 0.95 grams
Von Frey, paw withdrawal threshold (Mean ± SD) [3, 8]: 5.71 ± 0.41 grams
von Frey test, Paw withdrawal threshold, group MEAN ([3]; Baseline (Day 20)): 3.16 grams
von Frey test, Paw withdrawal threshold, group MEAN ([3]; Day 35): 5.80 grams
von Frey test, Paw withdrawal threshold, Mean/animal ([3]; Baseline (Day 20)): 4.30 grams and 2.10 grams and 2.74 grams and 3.48 grams
von Frey test, Paw withdrawal threshold, Mean/animal ([3]; Day 35): 5.60 grams and 5.24 grams and 6.21 grams and 6.14 grams
von Frey test, Paw withdrawal threshold, set 1 ([3]; Baseline (Day 20)): 4.6 grams and 2.1 grams and 3.3 grams and 4.5 grams
von Frey test, Paw withdrawal threshold, set 2 ([3]; Baseline (Day 20)): 2.4 grams and 1.8 grams and 2.1 grams and 2.2 grams
von Frey test, Paw withdrawal threshold, set 3 ([3]; Baseline (Day 20)): 6.0 grams and 2.4 grams and 2.8 grams and 3.8 grams
von Frey test, Paw withdrawal threshold, set 1 ([3]; Day 35): 5.3 grams and 5.9 grams and 7.7 grams and 5.1 grams
von Frey test, Paw withdrawal threshold, set 2 ([3]; Day 35): 5.1 grams and 3.7 grams and 5.3 grams and 7.0 grams
von Frey test, Paw withdrawal threshold, set 3 ([3]; Day 35): 6.4 grams and 6.1 grams and 5.7 grams and 6.3 grams
Conduction velocity, group MEAN ([4]; 6 weeks old, CMT + hAAT, 8 mice): 26.266 m/s
Compound muscle action potential (Mean ± SD) [4, 9]: 3.76 ± 0.50 mV
Nerve conduction velocity (Mean ± SD) [4, 9]: 15.96 ± 1.54 m/s
Amplitude, group MEAN [4, 10]: 5.492 mV
Conduction velocity, group MEAN [4, 10]: 16.946 m/s
Amplitude [4, 11]: 4.874 mV and 5.376 mV and 5.322 mV and 9.084 mV and 6.115 mV and 3.753 mV and 5.277 mV and 4.139 mV
Conduction velocity [4, 11]: 18.707 m/s and 16.462 m/s and 10.029 m/s and 19.200 m/s and 17.615 m/s and 9.648 m/s and 25.446 m/s and 18.460 m/s
T1 distal [4, 11]: 3.916 ms and 3.259 ms and 3.449 ms and 4.291 ms and 3.773 ms and 8.247 ms and 7.467 ms and 11.449 ms
T2 proximal [4, 11]: 4.718 ms and 4.170 ms and 4.945 ms and 5.072 ms and 4.624 ms and 9.802 ms and 8.057 ms and 12.262 ms
Compound muscle action potential (Mean ± SD) [4, 12]: 5.41 ± 0.71 mV
Nerve conduction velocity (Mean ± SD) [4, 12]: 21.47 ± 6.07 m/s
NCV vs untreated group ([4]; 12 weeks of age, after 2-week treatment-free period): non-significantly different
CMAP vs untreated CMT animals ([4]; 12 weeks of age, after 2-week treatment-free period, P<0.05): significantly higher
Compound muscle action potential (Mean ± SD) [4, 13]: 2.94 ± 0.65 mV
Nerve conduction velocity (Mean ± SD) [4, 13]: 10.50 ± 1.73 m/s
compound muscle action potential amplitude vs CMT mice not treated with AAT [4, 5]: significant increase
nerve conduction velocity vs CMT mice not treated with AAT [4, 5]: significant increase
